Laboratory results reported in the CheMixHub viscosity set.

Assay: xn = mol fraction of the nth substance listed

Nc1ccccc1 + CN(C)C=O
viscosity [mPa·s], 101.33 kPa
Details | x2 = 0.1013 | x2 = 0.203 | x2 = 0.3061 | x2 = 0.4006 | x2 = 0.5013 | x2 = 0.6024 | x2 = 0.6967 | x2 = 0.8002 | x2 = 0.9059
303.15 K | 2.783 | 2.508 | 2.273 | 2.048 | 1.812 | 1.571 | 1.341 | 1.115 | 0.908
313.15 K | 2.131 | 1.957 | 1.793 | 1.64 | 1.474 | 1.3 | 1.135 | 0.96 | 0.801

COCCOCCOCCO + CN(CCO)CCO
viscosity [mPa·s], 101.33 kPa
Details | x2 = 0.1004 | x2 = 0.2133 | x2 = 0.2964 | x2 = 0.3993 | x2 = 0.4991 | x2 = 0.5993 | x2 = 0.7001 | x2 = 0.8006 | x2 = 0.9002
298.15 K | 6.741 | 8.012 | 9.103 | 10.85 | 13.35 | 17.08 | 22.81 | 31.15 | 50.17
313.15 K | 4.491 | 5.038 | 5.882 | 6.508 | 7.732 | 9.412 | 12.03 | 15.99 | 22.23
323.15 K | 3.445 | 3.861 | 4.307 | 4.93 | 5.674 | 6.845 | 8.383 | 10.78 | 14.36

CCNCC + CNC(C)=O
308.15 K, 101 kPa
Details | viscosity [mPa·s]
x2 = 0.0413 | 0.2729
x2 = 0.1815 | 0.4061
x2 = 0.3505 | 0.6727
x2 = 0.5056 | 1.02
x2 = 0.5776 | 1.254
x2 = 0.6715 | 1.563
x2 = 0.7881 | 2.064
x2 = 0.8957 | 2.614
x2 = 0.9724 | 3.097

CC(C)(C)O + CO
303.2 K, 101.33 kPa
Details | viscosity [mPa·s]
x2 = 0.05 | 3.285
x2 = 0.1 | 3.166
x2 = 0.15 | 3
x2 = 0.2 | 2.806
x2 = 0.3 | 2.4
x2 = 0.4 | 2.016
x2 = 0.5 | 1.649
x2 = 0.6 | 1.36
x2 = 0.7 | 1.069
x2 = 0.8 | 0.842
x2 = 0.85 | 0.746
x2 = 0.9 | 0.658
x2 = 0.95 | 0.574

COCCOCCOCCOC + CO
viscosity [mPa·s], 100 kPa
Details | 293.15 K | 298.15 K | 303.15 K
x2 = 0.0543 | 2.129 | 1.922 | 1.733
x2 = 0.0988 | 2.083 | 1.882 | 1.696
x2 = 0.1978 | 1.982 | 1.795 | 1.621
x2 = 0.3013 | 1.864 | 1.689 | 1.527
x2 = 0.3994 | 1.737 | 1.58 | 1.434
x2 = 0.5183 | 1.57 | 1.433 | 1.302
x2 = 0.5962 | 1.443 | 1.321 | 1.203
x2 = 0.6983 | 1.26 | 1.158 | 1.058
x2 = 0.7969 | 1.055 | 0.975 | 0.894
x2 = 0.8472 | 0.944 | 0.875 | 0.804
x2 = 0.8993 | 0.825 | 0.767 | 0.705
x2 = 0.9489 | 0.711 | 0.662 | 0.608

C[NH+](CCO)CCO.O=C[O-] + CO
viscosity [mPa·s], 101 kPa
Details | 293.15 K | 303.15 K | 313.15 K | 323.15 K
x1 = 0.0524 | 26.47 | 15.39 | 6.822 | 4.667
x1 = 0.1066 | 52.08 | 24.58 | 13.12 | 8.99
x1 = 0.2075 | 103.1 | 49.04 | 26.16 | 17.87
x1 = 0.3137 | 158.6 | 77.7 | 40.82 | 27.89
x1 = 0.4061 | 207.6 | 102 | 54.12 | 37.05
x1 = 0.5016 | 259.6 | 126.3 | 68.64 | 47.08
x1 = 0.6339 | 339 | 163 | 91.65 | 62.82
x1 = 0.7031 | 388.3 | 187.2 | 106.1 | 72.5
x1 = 0.8195 | 494.6 | 243.3 | 136.4 | 92.04
x1 = 0.9184 | 618.8 | 307.1 | 167.4 | 111.1
x1 = 0.962 | 667.2 | 330.3 | 179.6 | 118.9

Nc1ccccc1 + CO
298.15 K, 101 kPa
Details | viscosity [mPa·s]
x1 = 0.0473 | 0.5608
x1 = 0.1001 | 0.5768
x1 = 0.1604 | 0.6103
x1 = 0.2292 | 0.6583
x1 = 0.3082 | 0.7229
x1 = 0.4007 | 0.8404
x1 = 0.5096 | 1.023
x1 = 0.6406 | 1.322
x1 = 0.8005 | 1.867

COCCOCCOCCOC + COC(=O)OC
298.15 K, 101.33 kPa
Details | viscosity [mPa·s]
x1 = 0.0029 | 0.592
x1 = 0.0133 | 0.606
x1 = 0.0209 | 0.618
x1 = 0.0436 | 0.651
x1 = 0.0642 | 0.679
x1 = 0.0947 | 0.721
x1 = 0.1187 | 0.753
x1 = 0.1459 | 0.792
x1 = 0.1856 | 0.846
x1 = 0.2147 | 0.888
x1 = 0.2593 | 0.953
x1 = 0.3084 | 1.026
x1 = 0.3099 | 1.025
x1 = 0.3614 | 1.099
x1 = 0.4011 | 1.157
x1 = 0.4433 | 1.221
x1 = 0.5005 | 1.303
x1 = 0.5659 | 1.396
x1 = 0.6004 | 1.449
x1 = 0.6515 | 1.524
x1 = 0.6923 | 1.585
x1 = 0.7622 | 1.673
x1 = 0.815 | 1.74
x1 = 0.8324 | 1.76
x1 = 0.9158 | 1.86
x1 = 0.9541 | 1.899

CC(C)(C)O + COC(C)(C)C
101.33 kPa
Details | viscosity [mPa·s]
303.15 K, x2 = 0.0443 | 2.726
303.15 K, x2 = 0.0877 | 2.236
303.15 K, x2 = 0.1262 | 1.894
303.15 K, x2 = 0.1702 | 1.587
303.15 K, x2 = 0.2519 | 1.192
303.15 K, x2 = 0.2645 | 1.146
303.15 K, x2 = 0.3232 | 0.9699
303.15 K, x2 = 0.3619 | 0.8794
303.15 K, x2 = 0.4504 | 0.7203
303.15 K, x2 = 0.5434 | 0.5955
303.15 K, x2 = 0.5686 | 0.5668
303.15 K, x2 = 0.6631 | 0.4759
303.15 K, x2 = 0.7872 | 0.3997
303.15 K, x2 = 0.8887 | 0.3669
303.15 K, x2 = 0.9442 | 0.3487
313.15 K, x2 = 0.048 | 1.742
313.15 K, x2 = 0.0499 | 1.73
313.15 K, x2 = 0.0796 | 1.556
313.15 K, x2 = 0.092 | 1.491
313.15 K, x2 = 0.1717 | 1.149
313.15 K, x2 = 0.2531 | 0.9105
313.15 K, x2 = 0.267 | 0.878
313.15 K, x2 = 0.3697 | 0.6901
313.15 K, x2 = 0.4552 | 0.5827
313.15 K, x2 = 0.5678 | 0.4803
313.15 K, x2 = 0.6723 | 0.4109
313.15 K, x2 = 0.7688 | 0.3634
313.15 K, x2 = 0.8802 | 0.3241
313.15 K, x2 = 0.9456 | 0.305
